From US5681961A, “Arylsulphonamides, pharmaceutical compositions containing these compounds and processes for preparing them” (Dr. Karl Thomae GmbH, priority 1989, dated 1997)
“And” between values parts separate entries of the source, which are not always exact repeats. Equal values may be shown once.

Key:
[1] = biological target: T1, thromboxane synthetase (Homo sapiens, UniProt P24557); assay: Inhibitory effect on thromboxane synthetase (TXB2 formation from arachidonic acid in human platelets); assay type: biochemical; conditions: inhibition of TXB2 formation, human platelet suspension, 14C-arachidonic acid
T1 construct: endogenous in cells; host or cells: washed human platelets (platelet-rich plasma passed through Sepharose 2B)
T1 sequence (P24557 1-533): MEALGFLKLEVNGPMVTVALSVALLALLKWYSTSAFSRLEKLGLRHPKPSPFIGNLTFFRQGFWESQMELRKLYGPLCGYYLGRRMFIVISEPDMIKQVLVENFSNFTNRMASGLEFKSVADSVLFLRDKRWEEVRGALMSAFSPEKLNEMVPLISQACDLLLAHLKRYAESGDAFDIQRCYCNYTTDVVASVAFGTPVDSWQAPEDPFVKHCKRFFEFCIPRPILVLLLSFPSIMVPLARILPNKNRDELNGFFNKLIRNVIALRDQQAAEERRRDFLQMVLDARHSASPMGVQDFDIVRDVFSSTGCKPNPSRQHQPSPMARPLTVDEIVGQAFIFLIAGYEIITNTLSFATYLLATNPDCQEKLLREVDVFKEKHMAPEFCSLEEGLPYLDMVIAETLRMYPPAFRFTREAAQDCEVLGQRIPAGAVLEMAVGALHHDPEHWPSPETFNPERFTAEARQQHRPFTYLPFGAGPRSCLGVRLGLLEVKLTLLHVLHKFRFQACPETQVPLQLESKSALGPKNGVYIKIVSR
Description: Venous human blood is anti-coagulated with 13 mM Na3 citrate and centrifuged for 10 minutes at 170×g. The supernatant platelet-rich plasma is passed through a Sepharose 2B column in order to remove the plasma proteins. Aliquots of the platelet suspension obtained are incubated with the test substance or with a solvent as control for 10 minutes at ambient temperature and after the addition of ^14 C-labelled arachidonic acid incubation is continued for a further 10 minutes. After this has been stopped with 50 μl of citric acid, extraction is carried out 3× with 500 μl of ethyl acetate and the combined extracts are distilled off with nitrogen. The residue is taken up in ethyl acetate, placed on TLC film and separated with chloroform:methanol:glacial acetic acid:water (90:8:1:0.8, v/v/v/v). The dried TLC films are placed on X-ray film for 3 days, the autoradiograms were developed and the active zones were marked on the film using the autoradiograms. After cutting out, the activity is measured in a scintillation counter and the inhibition of the formation of TXB2 is calculated. The IC50 is determined by linear interpolation.

[2] = tested on: mice; assay: Acute toxicity, oral, mice; assay type: in vivo, mouse; conditions: observation period 14 days; for animals died: 250 mg/kg single oral dose; for Approximate acute toxicity: single oral dose
Description: The acute toxicity of the test substances was determined as a guide on groups of 10 mice after oral administration of a single dose (observation period: 14 days): […]

[3] = tested on: collagen-induced thrombocyte aggregation in platelet-rich plasma; assay: Antithrombotic activity: collagen-induced thrombocyte aggregation (Born and Cross); assay type: cell-based, human (healthy volunteers); conditions: Homo sapiens, 10 min, 10 min incubation at 37° C.
Description: The thrombocyte aggregation is measured using the Born and Cross method (J. Physiol. 170: 397 (1964)) in platelet-rich plasma taken from healthy volunteers. To inhibit coagulation the blood is mixed with 3.14% sodium citrate in a ratio by volume of 1:10.
The pattern of the decrease in optical density of the platelet suspension is photometrically measured and recorded after the addition of aggregation-triggering substance. The rate of aggregation is concluded from the angle of inclination of the density curve. The point on the curve where there is maximum light transmittance is used to calculate the optical density.
The amount of collagen used is as small as possible but sufficient to produce an irreversible reaction curve. Standard commercial collagen produced by Hormonchemie of Munich is used. Before the addition of the collagen the plasma is incubated for 10 minutes with the substance at 37° C.
From the measurements obtained an EC50 is determined graphically, indicating a 50% change in the optical density in terms of the inhibition of aggregation.

[4] = tested on: production of thromboxane and PGE2 in an isolated lung; assay: Effect on production of thromboxane and PGE2 in an isolated lung; set-up: species or system guinea-pig
Description: Guinea-pigs are killed by a blow to the neck, the lungs are rapidly removed and washed with a tyrode solution through the pulmonary artery. The lung is perfused with the same solution (0.5 ml/min.) and ventilated under negative pressure (frequency: 52 breaths per minute, maximum pressure -20 cm H2 O). A 0.1 ml bolus of bradykinin (0.2 μM) is injected via the pulmonary arteria on two occasions, with approximately 60 minutes between boli. From 30 minutes before the second bradykinin injection 1 μM of substance B is continually added to the lung perfusate. The control lungs are perfused without the added substance. The perfusate is collected for 2 minutes be administration of bradykinin and 10 minutes thereafter. The samples are left to stand for 20 minutes at ambient temperature (conversion of thromboxane A2 into B2) and are then frozen at -20° C.
The concentrations of thromboxane B2 and PGE2 are determined by radioimmunoassay.

[5] = tested on: bronchospasm induced by arachidonic acid; assay: Inhibition of bronchospasm induced by arachidonic acid; assay type: in vivo, guinea-pig; conditions: Cavia porcellus, iv; guinea-pigs, injected 10 min before arachidonic acid (0.5-2.0 mg/kg i.v.); graphical extrapolation
Description: Guinea-pigs anaesthetised with ethyl urethane and ventilated artificially under pressure limitation are intravenously injected with arachidonic acid (a thromboxane precursor) and the consequent bronchospasms are recorded using a modified form of the method of Konzett and Rossler. The doses of arachidonic acid (0.5-2.0 mg/kg) are selected so as to give a 60% reduction in tidal volume. Increasing doses of test substance B are injected 10 minutes before the arachidonic acid. The percentage inhibition of reduction in tidal volume is determined by comparison of the maximum reduction after the administration of arachidonic acid and the corresponding value after pretreatment with the test substance.

[6] = biological target: T2, thromboxane (Homo sapiens, UniProt P21731); assay: Thromboxane-antagonistic activity: displacement of 3H-labelled ligand on washed human platelets; assay type: binding; conditions: displacement of 3H-ligand, human platelet suspension, 60 min ambient temperature
T2 construct: endogenous in cells; host or cells: washed human platelets (platelet-rich plasma passed through Sepharose 2B)
T2 sequence (P21731 1-343): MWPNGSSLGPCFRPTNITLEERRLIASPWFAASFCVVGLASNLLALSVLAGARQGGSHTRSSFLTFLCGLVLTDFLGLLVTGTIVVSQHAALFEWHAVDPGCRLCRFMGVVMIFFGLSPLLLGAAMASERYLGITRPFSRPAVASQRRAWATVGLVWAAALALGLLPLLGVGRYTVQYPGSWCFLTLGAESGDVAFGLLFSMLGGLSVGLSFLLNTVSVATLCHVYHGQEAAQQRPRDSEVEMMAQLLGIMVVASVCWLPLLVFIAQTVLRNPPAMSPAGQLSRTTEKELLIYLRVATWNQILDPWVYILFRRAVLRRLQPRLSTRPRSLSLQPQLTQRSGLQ
Description: Venous human blood is anti-coagulated with 13 mM Na3 citrate and centrifuged for 10 minutes at 170×g. The supernatant platelet-rich plasma is passed through a Sepharose 2B column in order to remove the plasma proteins. Aliquots of the platelet suspension obtained are incubated with the test substance, the ligand (^3 H-labelled) and a marker ([…]) for 60 minutes at ambient temperature and then centrifuged for 20 seconds at 10,000×g. The supernatant is removed and the pellet is dissolved in NaOH. The ^3 H activity in the supernatant corresponds to the free ligand, ^14 C gives the concentration of the marker. ^3 H in the pellet corresponds to the bound ligand whilst ^14 C is used to correct for the ligand in the extracellular space. After the process has been repeated, the displacement curve is determined from the binding values for different concentrations of the test substance and the IC50 is determined.

[7] = tested on: lethal effects of endotoxin (E. coli 0111:B4 lipopolysaccharide); assay: Inhibition of the lethal effects of endotoxin; assay type: in vivo, rat (male Sprague-Dawley)
Description: Male Sprague-Dawley rate are primed by intravenous injection with 0.1 mg/kg of endotoxin (a lipopolysaccharide from E. coli 0111:B4) one week before the main study. In the main study, a potentially lethal dose of E. coli (40 mg/kg) is injected intravenously and the subsequent mortality recorded over an observation period of seven days.
The test animals are given test substance B as a suspension in 0.5% tylose by oral route one hour before and 4, 8, 24 and 48 hours after the second injection of endotoxin.

[8] = 1 mg/kg oral at each dosage time point (1 h before, 4, 8, 24, 48 h after endotoxin)
[9] = 10 mg/kg oral at each dosage time point (1 h before, 4, 8, 24, 48 h after endotoxin)

Row | SMILES | IC50 [1] | animals died [2] | Approximate acute toxicity [2] | EC50 [3] | effect on formation of PGE2 (in words) ([4]; 1 μM in lung perfusate) | effect on thromboxane production (in words) ([4]; 1 μM in lung perfusate) | Ratio of mediator release after 2nd / after 1st administration of bradykinin: Thromboxane B2 ([4]; 1 μM in perfusate at time of 2nd bradykinin, individual values, control 1.18, 0.50, 0.84) | Ratio of mediator release after 2nd / after 1st administration of bradykinin: PGE2 ([4]; 1 μM in perfusate at time of 2nd bradykinin, individual values, control 1.28, 1.12, 1.09) | ED50 [5] | IC50 [6] | Rats alive/total after 2 days [7, 8] | Rats alive/total after 7 days [7, 8] | Rats alive/total after 2 days [7, 9] | Rats alive/total after 7 days [7, 9]
1 | O=C(O)CCCC=C(c1ccc(CCNS(=O)(=O)c2ccc(Cl)cc2)cc1)c1cccnc1 [B] | 0.8 nM | 0 out of 10 | 250 mg/kg | 150 nM | promoting the formation of PGE2 | hinders thromboxane production | 0.0 | 5.08 and 2.23 | 8.1 µg/kg | 20 nM | 7/10 | 6/10 | 8/10 | 5/10
2 | O=C(O)CCCCC(c1ccc(CCNS(=O)(=O)c2ccc(Cl)cc2)cc1)c1cccnc1 (stereo not shown) [D] | 1 nM | 0 out of 10 | 250 mg/kg | 1200 nM | – | – | – | – | – | 80 nM | – | – | – | –
3 | O=C(O)CCCCC(c1cccnc1)c1ccc2c(c1)CC(NS(=O)(=O)c1ccc(Cl)cc1)C2 (stereo not shown) [C] | 3 nM | 0 out of 10 | 250 mg/kg | 300 nM | – | – | – | – | – | 80 nM | – | – | – | –
4 | Cc1ccc(S(=O)(=O)NC2Cc3ccc(C(=CCCCC(=O)O)c4cccnc4)cc3C2)cc1 (stereo not shown) [A] | 3 nM | 0 out of 10 | 250 mg/kg | 300 nM | – | – | – | – | – | 23 nM | – | – | – | –
5 | O=C(O)CCCC=C(c1ccc(CCNS(=O)(=O)c2ccc(C(F)(F)F)cc2)cc1)c1cccnc1 [E] | 6 nM | 0 out of 10 | 250 mg/kg | 100 nM | – | – | – | – | – | 28 nM | – | – | – | –
